According to patent US20230263459A1, “DEVICE AND METHOD FOR PREVENTING SUDDEN DEATH AND PROTECTING OXYGEN STATUS DURING SEIZURE ACTIVITY” (priority 2020, published 2023):
“Also recorded” adds a separate entry of the source. Counter-ions that a name gives are not always drawn. Like-named read-outs stand apart in the source and are kept apart here.

Key:
[1] = test system: rat model of complete airway occlusion; settings: for number of breath attempts during occlusion: FIG. 7D, hydrochloride; for time to respiratory arrest (mean): air control 53.6
Method: Adult male Sprague Dawley rats (AGE median=63, mean=88 days; WEIGHT median=306, mean=329 grams; Envigo Chicago, Ill.) were housed in AAALAC-accredited facilities and maintained on a 12 hour light:dark cycle with a temperature of 23° C. and humidity of 55%, monitored daily, and had unrestricted access to water and food. Urethane (1.5 g/kg ip) was used for anesthesia in all animals.
ECG RECORDINGS—Limb-lead ECG was recorded using copper strips coated with conductive gel wrapped around both forelimbs and the base of the tail. Signals were amplified and filtered to pass 1 Hz to 1 kHz (Model 1800 AC amplifier with headstages; A-M Systems, Sequim, Wash.) and digitized at 2 kHz (Microl401 controlled by Spike 2 software; Cambridge Electronic Design, Cambridge, UK). Rhythm was assessed by reviewing P waves and associated QRS complexes for variations in wave shape, beat-to-beat intervals, and atrial-ventricular coupling.
The raw pulsatile waveform of the pulse oximeter was digitized (2 kHz) with other signals.
INSPIRATORY AIRWAY PRESSURES—A pressure transducer (CyQ, Columbus Instruments, Columbus, Ohio) was connected to the sidearm of a T-shaped tracheal tube (see infra). Inspiratory pressures during complete airway occlusion were measured relative to those observed during baseline breathing. Signals were digitized along with other signals recorded at the same time.
TRACHEAL IMPLANTS—A T-shaped tracheal tube was placed through an incision between cartilaginous rings of the trachea after the trachea was exposed in the neck. The distal arm was “sealed” in the trachea with suture around the trachea, compressing it against the outside wall of the implant.
CONTROLLED AIRWAY OCCLUSION—Obstructive apnea was produced with controlled airway occlusion. The exterior arm in the straight path with the implanted arm served breathing or could be occluded. A pressure transducer on the tracheal tube sidearm recorded forces developed during either normal breathing with the tracheal tube open to the atmosphere or during complete closure of the open port.
Injected volumes were 12.5 ml/kg and averaged 4.25 f 1.00 ml/animal (mean, standard deviation). Fluoxetine hydrochloride (cat #1279804) was obtained from Sigma Aldrich Inc. (St. Louis, Mo.).
Gas was delivered at ˜4 liters/min. In all animals, the occlusion was left in place until 10 seconds after the point of respiratory arrest, which was defined as the time of the peak of the last breath attempt.

[2] = test system: audiogenic seizure prone mice; settings: cited from earlier work
[3] = test system: audiogenic seizure-prone mice; settings: oxygen, FIG. 3
Excerpt: In audiogenic seizure-prone mice, seizures are stereotyped and consist of a running phase, a clonic phase, and a tonic phase that included hindlimb extension.

[4] = fluoxetine 25 mg/kg IP vs saline

## CNCCC(Oc1ccc(C(F)(F)F)cc1)c1ccccc1 (centres unmarked) [fluoxetine, Fluoxetine hydrochloride]
[1]; SSRI group vs saline, bolus gas delivery
  attempts needed to effect resuscitation after respiratory arrest: required more attempts on average
[1]; fluoxetine 25 mg/kg IP one hour post-injection vs saline
  increase in the time to respiratory arrest: 28%
[1]; [4]
  rate of desaturation during occlusion: did not significantly alter
  number of breath attempts during occlusion: no difference
[1]; fluoxetine 25 mg/kg IP vs saline, FIG. 7B
  inspiratory forces generated during breath attempts while occluded: no apparent differences
[1]; fluoxetine 25 mg/kg IP vs saline, listed as Fluoxetine
  number of breath attempts during occlusion: nearly equivalent
[1]; fluoxetine 25 mg/kg IP vs saline, FIGS. 7E, 7F
  respiratory rate: significantly slowed
[1]; fluoxetine 25 mg/kg IP, 60 min before occlusion, n=8, saline control 49.8/49.9
  time to respiratory arrest (average): 63.8 s
[1]; fluoxetine 25 mg/kg IP, saline group 37%, not statistically significant
  minimum oxygen saturation: 34%
[2]; multiple strains of audiogenic seizure prone mice (Faingold 2011, 2014; Zeng 2015)
  protection against death: protect against death

## O=O [oxygen]
[3]
  time in tonic hindlimb extension phase: unchanged
  time to respiratory arrest: prolonged
  total seizure time: unchanged
[1]; 50% oxygen/50% air 30 seconds prior to occlusion vs air
  increase in the time to respiratory arrest: 19%
[1]; 50% oxygen/50% air for 30 seconds prior to airway occlusion, n=7
  time to respiratory arrest (mean): 63.9 s
[1]; 50% oxygen/50% air for 30 seconds vs air
  number of breath attempts: significantly increased
[1]; animals breathing oxygen versus air, FIG. 1C
  delay in desaturation onset: ~40 s
[1]; oxygen 30 seconds prior to occlusion vs air
  increase in the time to respiratory arrest: 52%
[1]; oxygen 5 minutes prior to occlusion vs air
  increase in the time to respiratory arrest: 65%
[1]; oxygen animals, n=12, mean, standard deviation
  minimum pulse oximetry level: 37%±11
[1]; oxygen atmosphere for 5 minutes prior to airway occlusion
  time to respiratory arrest (mean): 88.4 s
[1]; oxygen enriched atmosphere vs room air, FIG. 1A
  time to respiratory arrest relative to room air: nearly doubled; also recorded: nearly twice as long
[1]; oxygen prior to occlusion vs air, FIG. 1D
  total number of breath attempts during complete airway closure: significantly greater
[1]; oxygen stream for only 30 seconds prior to airway occlusion (brief O2), n=10
  time to respiratory arrest (mean): 81.6 s
[1]; oxygen-breathing rat, pulse oximetry, FIGS. 2A-2B
  duration of sustained high level of oxygen saturation before decline: about 30 seconds
[1]; single animal, FIG. 2A, oxygen for five minutes before occlusion, air animal 53
  time of last breath attempt (respiratory arrest) after occlusion onset: 100 s
[1]; single animal, FIG. 2A, oxygen for five minutes before occlusion, air animal about 40
  onset of ST segment elevation, bradycardia and premature ventricular contractions post-occlusion: about 80 seconds
[2]; DBA/2 mice, seizures in an oxygen atmosphere (Venit 2004; Willott 1976)
  protection from normally fatal audiogenic seizures: protected
[2]; oxygen treatment (Venit 2004; Willott 1976)
  survival of animals: 100%
